Reference: patent US20060293288A1, “Use of resolvins to treat gastrointestinal diseases” (priority 2005, published 2006)
“Also recorded” adds a separate entry of the source.

Key:
[1] = tested on: leukocyte infiltration in zymosan-induced peritonitis; experiment: zymosan-induced peritonitis, leukocyte (PMN) infiltration; assay type: in vivo, mice; settings: for relative potency in the peritonitis model: compared with RvE1 or indomethacin; for effect on PMN infiltration/migration into the peritoneum (in words): peritonitis model, mice
Method: FIG. 1. (A) Inflammatory exudates from mice treated with EPA and aspirin generate RvE1 in vivo. (B) Inhibition of leukocyte infiltration in zymosan-induced peritonitis treated with EPA and aspirin. Mice were pre-treated for 30 min by aspirin (0.5 mg) intraperitoneally followed by EPA (0.3 mg) and zymosan. Peritoneal lavages were collected at 2 h and cells were enumerated. (n=4, *p<0.05 compared with vehicle control, **p<0.05 compared with aspirin alone). (C) Inhibition of leukocyte infiltration in zymosan-induced peritonitis. RvE1 (100 ng) was injected intravenously into tail veins followed by zymosan A into the peritoneum. Mice were sacrificed, and peritoneal lavages were collected (2 h) and cells enumerated (n=3, *p<0.01 compared with vehicle control).
Inflammatory exudates were initiated with intraperitoneal injection of 1 ml zymosan A (1 mg/ml) with 6-8-wk-old male FvB mice. Mice were pre-treated by aspirin (0.5 mg) i.p. followed by EPA (0.3 mg) and zymosan. Peritoneal lavages were collected at 2 h and cells were enumerated. Cell-free exudates were extracted by C18 solid phase extraction with deuterium-LTB4 (Cascade, UK) as an internal standard for LC-UV-MS/MS analysis using a Finnigan LCQ liquid chromatography ion trap tandem mass spectrometer equipped with a LUNA C18-2 (100×2 mm×5 μm) column and UV diode array detector using mobile phase (methanol:water:acetate at 65:35:0.01) from 0 to 8 min, ramped to methanol 8 to 30 min, with a 0.2 ml/min flow rate.

[2] = tested on: gastric damage; settings: induced by dextran sodium sulfate or aspirin; cited from earlier work
[3] = tested on: dextran sodium sulfate (DSS)-induced colitis; settings: cited from earlier work
[4] = tested on: TNBS-induced colitis; experiment: grading of histologic change of the colon in TNBS colitis; assay type: in vivo, BALB/c mice; settings: day 4, 1.0 μg/mouse i.p.
Method: FIG. 3. Colon histopathology from RvE1 or ATLa-treated mice. Colon section of vehicle-treated mouse (A), 4 days after the induction of colitis by TNBS (B), mice received RvE1 (C) and ATLa (D). (E) Histological scores of the colon of mice receiving vehicle, TNBS only, TNBS plus RvE1, or TNBS plus ATLa. *p<0.05 and **p<0.01, respectively.
To generate a more chronic T cell-mediated inflammation, BALB/c mice were sensitized with 150 μl of the haptenating agent 2,4,6-trinitrobenzene sulfonic acid (TNBS; Sigma-Aldrich, St. Louis, Mo.) of 2.5% in 50% ethanol by skin painting on day −7. On day 0, 150 μl of 1% TNBS in 50% ethanol was administered intrarectally via a 3.5 F catheter under anesthesia with tribromoethanol. To ensure distribution of the TNBS within the entire colon and cecum, mice were held in a vertical position for 1 min after the instillation. On day 4, mice were killed and immunopathologic characterization was performed as previously described (23).
The degree of inflammation on microscopic cross sections of the colon was graded semi quantitatively. Severity of colitis was assessed based on five histologic criteria, each graded on a […] (0=absent, 1=mild, 2=moderate, 3=severe): mononuclear inflammation, neutrophilic infiltration/crypt abscesses, crypt hyperplasia, mucosal injury/ulceration, and mucosal hypervascularity. The five scores were summed to give a total score. […]

[5] = tested on: mRNA expression of inflammatory mediators in colons; experiment: quantitative real-time PCR of inflammatory mediators in colon; assay type: in vivo, mice; settings: day 4, TNBS colitis
Excerpt: (§1) FIG. 4. RvE1 reduces leukocyte infiltration and pro-inflammatory mediators in colitis. (A) Myeloperoxidase (MPO) activity of colons of mice treated with TNBS alone or mice given RvE1. *p<0.0001 versus mice treated with TNBS alone. (B) Anti-TNBS IgG level in serum on day 4 from mice treated with TNBS alone or receiving RvE1 as noted. *p<0.01. (C) Quantitative real time PCR analysis of mRNA expression of inflammatory mediators in colons obtained on day 4 from control mice (white column), mice treated with TNBS alone (black column) or receiving TNBS plus RvE1 (gray column). *p<0.01.
Total RNA from colon was prepared using Trizol™ reagent (Life Technologies, Rockville, Md.). Real-time PCR was performed using the LightCycler FastStart DNA Master SYBR Green I (Roche Diagnostics GmbH, Mannheim, Germany) according to manufacturer's protocol. Primers for IFN-γ, IL-12p40, TNF-α, IL-4, TGF-β, IL-10, iNOS and glyceraldehyde-3-phosphate dehydrogenase (GAPDH) were designed as described (26). Primers for COX-2 were designed as follows: 5′-[…]-3′ and 5′-[…]-3′. Quantities of specific mRNA in the sample were measured according to the corresponding gene-specific standard curve. The relative expression of each gene was normalized against the housekeeping gene GAPDH.

[6] = tested on: Myeloperoxidase (MPO) activity of colons; experiment: myeloperoxidase (MPO) assay of colon tissue in TNBS colitis; assay type: in vivo, mice; settings: versus control vehicle
Excerpt: as §1
Each tissue sample was assessed for PMN content and infiltration. Tissues were homogenized in potassium phosphate buffer (pH 6.0) containing 0.5% hexadecyltrimethylammonium bromide, followed by three cycles of sonication and freeze-thawing. The particulate matter was removed by centrifugation (16,000 g for 20 min), and 75 μl of supernatant was added to 925 μl of potassium phosphate buffer (pH 6.0) containing 0.2 mg/ml o-dianisidine dihydrochloride (Sigma, St. Louis, Mo.) and 0.0006% hydrogen peroxide. Changes in OD were monitored at 460 nm at 25° C., at 30- and 90-s intervals. Calibration curve for conversion of MPO activities to PMN number was performed as in ref. 24.

[7] = tested on: TNBS-induced colitis; experiment: TNBS-induced colitis (mortality, body weight, colon macroscopy); assay type: in vivo, BALB/c mice
Method: (C) Macroscopic appearance of the colon of mice receiving vehicle, TNBS only, or mice receiving RvE1 (0.05 mg/kg).
RvE1 was administered intraperitoneally (1.0 μg/mouse; 50 μg/kg) on the indicated days before the induction of colitis (prevention mode). Aspirin-triggered lipoxin A4 analog (ATLa; 15-epi-16-(p-fluoro)phenoxy-LXA4) was given at the same dose as a direct comparison with RvE1.

[8] = tested on: anti-TNBS IgG; experiment: detection of TNP-specific antibodies in serum with ELISA; assay type: in vivo, mice; settings: day 4
Excerpt: as §1
Sera were collected on day 4, and anti-trinitrophenyl residue (TNP) antibodies were determined by ELISA as previously described with a minor modification (25). Briefly, 100 mg of OVA was dissolved in 4 ml of 0.05M carbonate-bicarbonate buffer at pH 9.6 followed by adding 1 ml of TNBS 5% solution and incubating for 2 h at room temperature. TNP-OVA was dialyzed in PBS and then stored at −80° C. until use. For the detection of TNP-specific antibodies, TNP-OVA was dissolved at the concentration of 0.1 mg/ml in 0.05M carbonate-bicarbonate buffer at pH 9.6 and 100 μl was placed in each well of 96-well microtiter plates for coating. After blocking with 1% bovine serum albumin in PBS, plates were incubated with appropriately diluted serum. […]

With CCC(O)/C=C/C=C\C/C=C\C/C=C\C=C\[C@@H](O)CCCC(=O)O (mixture of isomers) [5S,18(+/−)-diHEPA] the “relative potency in the peritonitis model” value (“relative potency” below) [1] was “equipotent to Resolvin E1” and the “effect on PMN infiltration/migration into the peritoneum (in words)” value [1] was “downregulation of PMN infiltration”.

In the case of CC/C=C\C[C@H](O)/C=C/C=C\C=C\[C@@H](O)C/C=C\CC#CCCC(=O)O [4,5-dehydro 10,17S-dihydroxy DHA], the “inhibition of the PMN infiltration” value ([1]; 100 ng dose, murine zymosan A-induced peritonitis) is reported as 40%.

In the case of CC/C=C\C[C@H](O)/C=C/C=C/C=C/C(O)C/C=C\C/C=C\CCC(=O)O (stereo partly drawn) [10,17 di-HDHA, 10,17S-dihydroxy-docosa-4Z,7Z,11E,13,15E,19Z-hexaenoic acid], the “effect on PMN infiltration/migration into the peritoneum (in words)” value [1] is reported as “inhibited both PMN migration into the peritoneum”.

In the case of CCCCC[C@@H](O)/C=C/C=C\C=C\C=C\[C@@H](O)[C@@H](O)CCCC(=O)O [15-epi-lipoxin A4], the “protection against gastric damage” value [2] is listed as “protective”.

For CC[C@@H](O)/C=C/C=C\C/C=C\C/C=C\C/C=C\CCCC(=O)O [18R-HEPE, reference compound], the “relative potency” value [1] was “much less potent”.

In the case of O=C(O)CCC[C@H](O)[C@H](O)/C=C/C=C/C=C\C=C\[C@H](O)COc1ccc(F)cc1 [ATLa, 15-epi-16-(p-fluoro)phenoxy-LXA4, reference compound], the “protection against DSS-induced colitis” value [3] is listed as “protective” and the “histologic features of colitis” value [4] is listed as “dramatic protection”.

In the case of CC[C@@H](O)/C=C/C=C\C[C@@H](O)/C=C/C=C/C=C\[C@@H](O)CCCC(=O)O [RvE1, 5S,12R,18R-trihydroxy-6Z,8E,10E,14Z,16E-eicosapentaenoic acid], the “COX-2 mRNA level in colon” value [5] is reported as “significant reduction”, the “IFN-γ mRNA level in colon” value [5] is reported as “direct effects were not observed” and the “IL-4 mRNA level in colon” value [5] is reported as “direct effects were not observed”. For the same molecule, the “IL-10 mRNA level in colon” value [5] was “direct effects were not observed”, the “IL-12p40 mRNA level in colon” value [5] was “significant reduction” and the “TGF-β mRNA level in colon” value [5] was “did not show significant differences”. The “TNF-α mRNA level in colon” value ([5]; 0.05 mg/kg) was “significant reduction; also recorded: dramatic decrease”, the “iNOS mRNA level in colon” value ([5]; 0.05 mg/kg) was “significant reduction; also recorded: dramatic decrease” and the “myeloperoxidase (MPO) activity in colon” value [6] was “significantly lower levels”. The “protection against the development of TNBS colitis” value ([7]; 0.05 mg/kg) was “complete protection”, the overall mortality ([7]; RvE1 1.0 μg/mouse (0.05 mg/kg) i.p., TNBS alone 62.5%) was 25% and the body weight loss ([7]; RvE1 1 μg/mouse or 0.05 mg/kg, versus TNBS with vehicle) was “less weight loss”. The “shortening and thickening of the colon” value ([7]; RvE1 0.05 mg/kg) was “did not exhibit significant shortening and thickening of the colon”, the survival rate ([7]; versus non-treated mice) was “significantly higher” and the “reduction of leukocyte infiltration” value ([1]; 100 ng/mouse intravenously, zymosan peritonitis, lavage at 2 h) was 50%. For the same molecule, the “relative potency” value [1] was “more potent than indomethacin”, the “serum anti-TNBS IgG level” value [8] was “decreased” and the “histologic features of colitis” value [4] was “less severe histologic features of colitis”.

With COc1ccc2c(c1)c(CC(=O)O)c(C)n2C(=O)c1ccc(Cl)cc1 [indomethacin, reference compound] the “reduction of leukocyte numbers in the exudate” value ([1]; zymosan peritonitis, dose not given) was “approximately 20%”.
